We go through one molecule from paper PMC11535186, “Exploring the Anti-Inflammatory Potential of Ajuga integrifolia Leaves Extract: In Vitro Dual Inhibition of Cyclooxygenase and Lipoxygenase Enzymes” (Advances in Pharmacological and Pharmaceutical Sciences, 2024).

The target of the test is 5-LOX (Glycine max, UniProt P08170). Briefly: 5-LOX inhibitory assay (linoleic acid substrate, 234 nm). The test is classed as biochemical. The following applies: read-out: % inhibition 5-LOX. As for the experimental part: The inhibition of LOX was evaluated according to the method described by Malterud with slight modifications. A 100 μL enzyme solution was prepared in boric acid buffer (0.2 M; pH 9.0). To assess the inhibitory effect, 25 μL of each test extract (20, 40, 60, 80, and 100 μg/mL) was added to the enzyme solution. The mixture was then incubated at room temperature for 3 min. […] IC50 values were calculated by regression analysis using Microsoft Excel involving five concentrations. The percentage inhibition of enzyme activity and IC50 values are presented as the mean values ± SD.
5-LOX, sequence (P08170 whole entry): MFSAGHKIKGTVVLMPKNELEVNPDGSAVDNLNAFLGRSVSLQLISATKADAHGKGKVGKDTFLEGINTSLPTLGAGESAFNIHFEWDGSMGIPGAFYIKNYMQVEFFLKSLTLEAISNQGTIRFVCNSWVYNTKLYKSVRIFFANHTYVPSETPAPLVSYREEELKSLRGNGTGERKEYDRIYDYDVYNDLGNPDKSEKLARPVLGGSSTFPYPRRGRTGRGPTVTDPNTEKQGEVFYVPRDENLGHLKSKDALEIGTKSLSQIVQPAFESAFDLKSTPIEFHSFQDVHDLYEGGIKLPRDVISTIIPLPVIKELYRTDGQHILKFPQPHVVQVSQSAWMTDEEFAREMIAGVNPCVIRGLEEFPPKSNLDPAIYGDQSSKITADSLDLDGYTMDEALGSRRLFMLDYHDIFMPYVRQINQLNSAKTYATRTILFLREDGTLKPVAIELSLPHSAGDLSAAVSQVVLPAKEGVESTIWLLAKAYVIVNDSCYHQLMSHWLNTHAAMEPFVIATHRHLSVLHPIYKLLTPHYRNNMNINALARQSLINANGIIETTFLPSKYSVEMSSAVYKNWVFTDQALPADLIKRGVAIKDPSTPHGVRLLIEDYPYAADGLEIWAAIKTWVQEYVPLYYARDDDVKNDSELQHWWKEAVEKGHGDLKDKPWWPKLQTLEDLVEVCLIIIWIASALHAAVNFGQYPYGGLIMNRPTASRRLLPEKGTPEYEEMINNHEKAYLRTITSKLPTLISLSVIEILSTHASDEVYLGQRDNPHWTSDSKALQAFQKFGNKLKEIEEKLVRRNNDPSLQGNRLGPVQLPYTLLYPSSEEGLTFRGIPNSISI

In general, inhibition refers to the change of the read-out against control, counted positive when it falls. Turning to `CC(c1cc2ccccc2s1)N(O)C(N)=O` (centres unmarked) [Zileuton], the inhibition at 20 µg/mL was found to be 26.1%, the inhibition at 40 µg/mL was determined as 47%, the inhibition at 60 µg/mL stood at 51.9% and the inhibition at 80 µg/mL was 64.2%. For the same molecule, the inhibition at 100 µg/mL stood at 70.4%.
